From patent US20240398787A1, “TREATMENT OF MAJOR DEPRESSIVE DISORDER” (AbbVie Inc., priority 2021, published 2024)

Key:
Type in all cases: in vivo, human
[1] = tested on: patients with major depressive disorder (MDD); experiment: Adverse events and discontinuations during double-blind treatment period, Clinical Study A; details: for TEAE: Akathisia / TEAE: Headache / TEAE: Insomnia / TEAE: Nausea / TEAE: Somnolence: N = 252; for Deaths: safety population; for Treatment-emergent adverse events (TEAEs): safety population N = 252
Description: (§1) A global, multicenter, randomized, double-blind (DB), placebo-controlled, parallel-group, fixed-dose study compared cariprazine 1.5 mg/day and cariprazine 3 mg/day with placebo as an adjunctive treatment to ongoing ADT in outpatients with a diagnosis of MDD (via the Diagnostic and Statistical Manual of Mental Disorders, Fifth Edition [DSM-5]) having an inadequate response, as measured by the modified Antidepressant Treatment Response Questionnaire (ATRQ), to 1 to 3 antidepressants administered during the current episode at an adequate dose and adequate duration. Adequate dose was defined as a dose above the minimum labeled dose (per package insert). Adequate duration was defined as continuous ADT treatment for at least 6 weeks, with a minimum of 3 of 6 weeks above the minimal dose.
(§2) The study consisted of up to 14 days screening (with up to an additional 7 days of needed) and washout of prohibited medications followed by 6 weeks of double-blind (DB) treatment followed by a 4-week safety follow-up. At the end of the screening period, patients meeting the entry criteria for the study were randomized (1:1:1) to 1 of 3 double-blind treatment groups. Study treatment groups were: cariprazine 1.5 mg/day+antidepressant therapy and cariprazine 3 mg/day+antidepressant therapy. The control group received matching placebo+antidepressant therapy.
(§3) Dosage/Dose Regimen: Investigational product (cariprazine or placebo) in the form of capsules packaged in blister packs will be provided. No investigational product was administered during the screening/washout period; patients continued the same antidepressant and dose they were on at screening. Patients were taking more than one antidepressant at screening, regardless of the indication, discontinued all other antidepressants prior to baseline (Visit 2). During the double-blind treatment period (6 weeks), patients were administered 1 capsule orally per day in addition to their ongoing ADT. Patients in the 1.5 mg/day+ADT arm were administered 1.5 mg+ADT starting at Visit 2 (Week 0). Patients in the 3 mg/day+ADT arm were administered 1.5 mg+ADT starting at Visit 2 (Week 0) for 2 weeks and then titrate to 3 mg/day+ADT starting at Visit 4 (Week 2). Patients were supplied with identically appearing capsules of either cariprazine 1.5 mg, cariprazine 3 mg, or placebo.
(§4) Following a screening period of up to 14 days (with up to an additional 7 days if needed), which included a washout of prohibited psychotropic medications except for ongoing ADT, patients with a partial response to their antidepressant monotherapy were randomized into three treatment groups (1:1:1). One group received cariprazine 1.5 mg/d+ADT, one received cariprazine 3.0 mg/d+ADT, and one group received placebo+ADT. All participants randomized to cariprazine began on 1.5 mg/d; cariprazine 1.5 mg/d patients remained at that dosage, while cariprazine 3.0 mg/d patients received 1.5 mg/d for 2 weeks and increased to 3.0 mg/d on day 15.
Table 15 summarizes the most frequent TEAEs occurring in ≥5% in any treatment group, and Table 16 summarizes changes in weight. An AE was considered a treatment-emergent adverse event (TEAE) if the AE began or worsened (increased in severity or became serious) on or after the first dose of double-blinded investigational product.

[2] = tested on: patients with major depressive disorder (MDD); experiment: Hamilton Depression Rating Scale-17 (HAMD-17) total score, Clinical Study A; details: ANCOVA and LOCF; for LSMD vs placebo, HAMD-17: week 6
Description: as §1, §2, §3
A randomized, double-blind, placebo-controlled, multicenter trial with 759 participants was conducted in United States, Bulgaria, Estonia, Germany, Hungary, Ukraine, and the United Kingdom. […]

[3] = tested on: patients with major depressive disorder (MDD); experiment: Hamilton Anxiety Rating Scale (HAM-A) total score, Clinical Study A; details: for LS mean change from baseline to week 6, HAM-A / LSMD vs placebo, HAM-A: MMRM; for HAM-A remission rate (total score ≤7) / HAM-A remission, odds ratio vs placebo / HAM-A response rate (≥50% score reduction from baseline) / HAM-A response, odds ratio vs placebo / LSMD vs placebo, HAM-A: week 6; for HAM-A remission rate (total score ≤7) / HAM-A remission, odds ratio vs placebo / HAM-A response rate (≥50% score reduction from baseline) / HAM-A response, odds ratio vs placebo: LOCF
Description: as §1, §2, §3
as §4, with “A randomized, double-blind, placebo-controlled, multicenter trial with 759 participants was conducted in United States, Bulgaria, Estonia, Germany, Hungary, Ukraine, and the United Kingdom. Following” for “Following”
The primary and secondary efficacy parameters were change from baseline to week 6 in Montgomery-Åsberg Depression Rating Scale (MADRS) total score and Clinical Global Impressions-Severity (CGI-S) score, respectively (screening, baseline, and weeks 1, 2, 4, and 6). Additional efficacy parameters (screening, baseline, and ≥1 double-blind visit) included: MADRS response (≥50% MADRS total score reduction) and remission (MADRS total score ≤10); change from baseline in HAMD-17 total score and Hamilton Anxiety Rating Scale (HAM-A) total score (32); and Clinical Global Impressions-Improvement (CGI-I) score and response (CGI-I score ≤2).
The Hamilton Anxiety Rating Scale (HAM-A) (Hamilton 1959) is a clinician-rated scale which consists of 14 items, each rated on a 5-point scale ranging from 0 (not present) to 4 (very severe). […]

[4] = 1.5 mg/day + ADT, double-blind period
[5] = 1.5 mg/day + ADT, randomized population N = 252
[6] = 3.0 mg/day + ADT, double-blind period
[7] = 3 mg/day + ADT, randomized population N = 253

## CN(C)C(=O)N[C@H]1CC[C@H](CCN2CCN(c3cccc(Cl)c3Cl)CC2)CC1 [Cariprazine, trans-N-{4-[2-[4-(2,3-dichlorophenyl)piperazin-1-yl]ethyl]cyclohexyl}-N′,N′-dimethylurea]
[1]; 1.5 mg/day + ADT
  TEAE: Akathisia: 13 (5.2) n (%)
  TEAE: Headache: 22 (8.7) n (%)
  TEAE: Insomnia: 18 (7.1) n (%)
  TEAE: Nausea: 20 (7.9) n (%)
  TEAE: Somnolence: 13 (5.2) n (%)
[1]; [4]
  Any Extrapyramidal Symptoms (EPS) TEAEs: 25 (9.9) n (%)
  Treatment-emergent Serious AE (TESAE): 1 (0.4) n (%)
  Deaths: 0 n (%)
  Treatment-emergent adverse events (TEAEs): 125 (49.6) n (%)
[1]; [5]
  Premature discontinuation due to Death: 0 n (%)
  Premature discontinuation due to Lack of Efficacy: 2 (0.8) n (%)
[1]; 3.0 mg/day + ADT
  TEAE: Akathisia: 20 (7.9) n (%)
  TEAE: Headache: 11 (4.4) n (%)
  TEAE: Insomnia: 16 (6.3) n (%)
  TEAE: Nausea: 16 (6.3) n (%)
  TEAE: Somnolence: 11 (4.4) n (%)
[1]; [6]
  Any Extrapyramidal Symptoms (EPS) TEAEs: 38 (15.1) n (%)
  TEAE leading to discontinuation from study: 18 (7.1) n (%)
  Treatment-emergent Serious AE (TESAE): 1 (0.4) n (%)
  Deaths: 0 n (%)
  Treatment-emergent adverse events (TEAEs): 124 (49.2) n (%)
[1]; [7]
  Premature discontinuation due to Adverse Event: 18 (7.1) n (%)
  Premature discontinuation due to Death: 0 n (%)
  Premature discontinuation due to Lack of Efficacy: 0 n (%)
[1]; six-week study period
  Most common adverse events occurring at ≥5% in the cariprazine groups: akathisia, nausea, insomnia, headache and somnolence
  Safety results (overall): no new safety signals identified
[2]; 1.5 mg/d + ADT
  LS mean change from baseline to week 6, HAMD-17 total score: −12.7
  LSMD vs placebo, HAMD-17: −2.1
[2]; 3 mg/d + ADT
  LS mean change from baseline to week 6, HAMD-17 total score: −11.9
  LSMD vs placebo, HAMD-17: −1.2
[3]; 1.5 mg/d + ADT
  LS mean change from baseline to week 6, HAM-A: −9.1
  HAM-A remission rate (total score ≤7): 28.7%
  HAM-A remission, odds ratio vs placebo: 1.2
  HAM-A response rate (≥50% score reduction from baseline): 40.9%
  HAM-A response, odds ratio vs placebo: 1.3
  LSMD vs placebo, HAM-A: −1.3
[3]; 3 mg/d + ADT
  LS mean change from baseline to week 6, HAM-A: −8.6
  LSMD vs placebo, HAM-A: −0.8
[3]; 3.0 mg/d + ADT
  HAM-A remission rate (total score ≤7): 27.9%
  HAM-A remission, odds ratio vs placebo: 1.1
  HAM-A response rate (≥50% score reduction from baseline): 41.0%
  HAM-A response, odds ratio vs placebo: 1.3
